Measurements reported in US20170000889A1, “STABLE BROMFENAC OPHTHALMIC SOLUTION” (SENTISS PHARMA PRIVATE LIMITED, priority 2013, published 2017).

Experiment: Haziness of citrate-buffered bromfenac formulation on addition of BKC, effect of surfactants
Type: physicochemical
Settings: for Degradation of the bromfenac solution with the surfactant: compared among different surfactants; for Haziness after addition of BKC to the citrate formulation: surfactant added to citrate-buffered bromfenac solution with benzalkonium chloride
Protocol: In yet other embodiment of the present invention, citrate buffer is used instead of borate buffer but when benzalkonium chloride (BKC) was added in the citrate formulation it causes haziness of the formulation.
The inventors of the present invention extensively studied how to overcome the haziness occurred during the addition of BKC.

In the case of polyoxyl-15-hydroxystearate, the “Degradation of the bromfenac solution with the surfactant” value is reported as “least amount of degradation” and the “Haziness after addition of BKC to the citrate formulation” value is reported as “remove the haziness”.
For polysorbate 80, the “Degradation of the bromfenac solution with the surfactant” value was “least amount of degradation” and the “Haziness after addition of BKC to the citrate formulation” value was “remove the haziness”.
